Assay results reported in patent publication US20200031825A1, “HETEROAROMATIC-FUSED IMIDAZOLYL AMIDES, COMPOSITIONS AND USES THEREOF AS STING AGONISTS” (Trillium Therapeutics Inc., priority 2018, published 2020).
Counter-ions that a name gives are not always drawn. Like-named read-outs stand apart in the source and are kept apart here.

How the values were obtained:
Assay type in all cases: cell-based
[1] = target: hSTING-HAQ (Homo sapiens, UniProt Q86WV6, G230A/H232R/R293Q/R71H); assay: Cellular Functional Assay I: ISRE-SEAP reporter in HEK-293T-Dual Null cells transfected with hSTING-HAQ; conditions: HEK-293T-Dual Null, hSTING-HAQ
Chain of hSTING-HAQ (Q86WV6 whole entry R71H/G230A/H232R/R293Q): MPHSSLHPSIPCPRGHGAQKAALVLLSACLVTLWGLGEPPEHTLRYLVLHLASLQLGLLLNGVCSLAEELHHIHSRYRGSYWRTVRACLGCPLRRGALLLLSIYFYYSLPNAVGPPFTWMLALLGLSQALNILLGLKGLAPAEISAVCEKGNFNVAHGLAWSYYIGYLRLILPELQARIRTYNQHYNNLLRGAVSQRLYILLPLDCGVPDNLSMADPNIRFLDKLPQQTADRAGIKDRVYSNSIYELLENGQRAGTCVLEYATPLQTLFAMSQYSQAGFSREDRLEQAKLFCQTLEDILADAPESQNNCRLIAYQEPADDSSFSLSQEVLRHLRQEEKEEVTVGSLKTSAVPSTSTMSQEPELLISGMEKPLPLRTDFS

[2] = target: hSTING-wt (Homo sapiens, UniProt Q86WV6); assay: Cellular Functional Assay I: ISRE-SEAP reporter in HEK-293T-Dual Null cells transfected with hSTING-wt; conditions: HEK-293T-Dual Null, hSTING-wt
Chain of hSTING-wt (Q86WV6 whole entry H232R): as the sequence (Q86WV6 whole entry R71H/G230A/H232R/R293Q) above, with H71R, A230G, Q293R counted along it

[3] = target: T1, hSTING-Q (Homo sapiens, UniProt Q86WV6, R293Q); assay: Cellular Functional Assay I: ISRE-SEAP reporter, hSTING-Q allele
T1 construct: expressed in transfected cells
T1 sequence (Q86WV6 whole entry R293Q): as the sequence (Q86WV6 whole entry R71H/G230A/H232R/R293Q) above, with H71R, A230G, R232H counted along it

[4] = target: hSTING-H232 (Homo sapiens, UniProt Q86WV6); assay: Cellular Functional Assay I: ISRE-SEAP reporter in HEK-293T-Dual Null cells transfected with hSTING-H232; conditions: HEK-293T-Dual Null, hSTING-H232
Chain of hSTING-H232 (Q86WV6 whole entry): as the sequence (Q86WV6 whole entry R71H/G230A/H232R/R293Q) above, with H71R, A230G, R232H, Q293R counted along it

[5] = target: T2, mSTING-wt (Mus musculus, UniProt Q3TBT3); assay: Cellular Functional Assay I: ISRE-SEAP reporter in HEK-293T-Dual Null cells transfected with mouse STING
T2 sequence (Q3TBT3 1-378): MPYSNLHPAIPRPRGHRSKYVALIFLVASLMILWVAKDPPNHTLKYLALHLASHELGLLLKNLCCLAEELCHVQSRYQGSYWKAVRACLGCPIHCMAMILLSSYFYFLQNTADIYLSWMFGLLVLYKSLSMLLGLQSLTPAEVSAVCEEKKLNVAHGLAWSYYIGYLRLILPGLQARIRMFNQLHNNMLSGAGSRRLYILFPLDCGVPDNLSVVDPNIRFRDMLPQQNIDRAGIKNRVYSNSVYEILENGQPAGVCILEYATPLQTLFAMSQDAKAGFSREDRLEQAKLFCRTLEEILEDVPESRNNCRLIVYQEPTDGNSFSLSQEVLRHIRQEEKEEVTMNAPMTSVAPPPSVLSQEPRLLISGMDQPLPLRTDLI

[6] = target: T3, hSTING-AQ (Homo sapiens, UniProt Q86WV6, G230A/R293Q); assay: Cellular Functional Assay I: ISRE-SEAP reporter, hSTING-AQ allele
T3 construct: expressed in transfected cells
T3 sequence (Q86WV6 whole entry G230A/H232R/R293Q): as the sequence (Q86WV6 whole entry R71H/G230A/H232R/R293Q) above, with H71R counted along it

[7] = SEAP reporter, HEK-293T-Dual Null, mSTING-wt, read-out: EC50 mSTING-wt

| SMILES | EC50 [1] | EC50 [2] | EC50 [3] | EC50 [4] | EC50 [5, 7] | EC50 [6] | EC50 [5] |
| --- | --- | --- | --- | --- | --- | --- | --- |
| CCn1nc(C)cc1C(=O)Nc1nc2cc(C(N)=O)cnc2n1C/C=C/Cn1c(NC(=O)c2cc(C)nn2CC)nc2cc(C(N)=O)cc(OCCCNCCOC(F)F)c21 [Compound U, 3-[(E)-4-[5-carbamoyl-7-[3-[2-(difluoromethoxy)ethylamino]propoxy]-2-[(2-ethyl-5-methyl-pyrazole-3-carbonyl)amino]benzimidazol-1-yl]but-2-enyl]-2-[(2-ethyl-5-methyl-pyrazole-3-carbonyl)amino]imidazo[4,5-b]pyridine-6-carboxamide] | 1 to 500 nM | 1 to 500 nM | 1 to 500 nM | 1 to 500 nM | 1 to 500 nM | 1 to 500 nM |  |
| CCn1nc(C)cc1C(=O)Nc1nc2cc(C(N)=O)cnc2n1CCCCNC(=O)OC(C)(C)C [Compound E, tert-butyl N-[4-[6-carbamoyl-2-[(2-ethyl-5-methyl-pyrazole-3-carbonyl)amino]imidazo[4,5-b]pyridin-3-yl]butyl]carbamate] | > 500 nM | > 500 nM | > 500 nM | > 500 nM | > 500 nM | > 500 nM |  |
| CCn1nc(C)cc1C(=O)Nc1nc2cc(C(N)=O)ccc2n1C/C=C/Cn1c(NC(=O)c2cc(C)nn2CC)nc2cc(C(N)=O)sc21 [Compound M, 3-[(E)-4-[5-carbamoyl-2-[(2-ethyl-5-methyl-pyrazole-3-carbonyl)amino]benzimidazol-1-yl]but-2-enyl]-2-[(2-ethyl-5-methyl-pyrazole-3-carbonyl)amino]thieno[2,3-d]imidazole-5-carboxamide Tetrahydrochloride] | > 500 nM | 1 to 500 nM | 1 to 500 nM | 1 to 500 nM | 1 to 500 nM | > 500 nM |  |
| CCn1nc(C)cc1C(=O)Nc1nc2cc(C(N)=O)cnc2n1C/C=C/Cn1c(NC(=O)c2cc(C)nn2CC)nc2cc(C(N)=O)cc(OCCCNC)c21 [Compound S, 3-[(E)-4-[5-carbamoyl-2-[(2-ethyl-5-methyl-pyrazole-3-carbonyl)amino]-7-[3-(methylamino)propoxy]benzimidazol-1-yl]but-2-enyl]-2-[(2-ethyl-5-methyl-pyrazole-3-carbonyl)amino]imidazo[4,5-b]pyridine-6-carboxamide] | 1 to 500 nM | 1 to 500 nM | 1 to 500 nM | 1 to 500 nM | 1 to 500 nM | 1 to 500 nM |  |
| CCn1nc(C)cc1C(=O)Nc1nc2cc(C(N)=O)sc2n1C/C=C/Cn1c(NC(=O)c2cc(C)nn2CC)nc2cc(C(N)=O)cc(OCCCN(C)C)c21 [Compound O, 3-[(E)-4-[5-carbamoyl-7-[3-(dimethylamino)propoxy]-2-[(2-ethyl-5-methyl-pyrazole-3-carbonyl)amino]benzimidazol-1-yl]but-2-enyl]-2-[(2-ethyl-5-methyl-pyrazole-3-carbonyl)amino]thieno[2,3-d]imidazole-5-carboxamide] |  | 1 to 500 nM |  | 1 to 500 nM |  |  |  |
| CCn1nc(C)cc1C(=O)Nc1nc2cc(C(N)=O)cnc2n1C/C=C/Cn1c(NC(=O)c2cc(C)nn2CC)nc2cc(C(N)=O)cc(OCCCN3CCCOCC3)c21 [Compound Z, 3-[(E)-4-[5-carbamoyl-2-[(2-ethyl-5-methyl-pyrazole-3-carbonyl)amino]-7-[3-(1,4-oxazepan-4-yl)propoxy]benzimidazol-1-yl]but-2-enyl]-2-[(2-ethyl-5-methyl-pyrazole-3-carbonyl)amino]imidazo[4,5-b]pyridine-6-carboxamide] | 1 to 500 nM | 1 to 500 nM | 1 to 500 nM | 1 to 500 nM | 1 to 500 nM | 1 to 500 nM |  |
| CCn1nc(C)cc1C(=O)Nc1nc2cc(C(N)=O)sc2n1C/C=C/Cn1c(NC(=O)c2cc(C)nn2CC)nc2cc(C(N)=O)cc(OCCCNC)c21 [Compound Q, 3-[(E)-4-[5-carbamoyl-2-[(2-ethyl-5-methyl-pyrazole-3-carbonyl)amino]-7-[3-(methylamino)propoxy]benzimidazol-1-yl]but-2-enyl]-2-[(2-ethyl-5-methyl-pyrazole-3-carbonyl)amino]thieno[2,3-d]imidazole-5-carboxamide] |  | 1 to 500 nM |  | 1 to 500 nM |  |  |  |
| CCn1nc(C)cc1C(=O)Nc1nc2cc(C(N)=O)cc(C)c2n1C/C=C/Cn1c(NC(=O)c2cnc(C)s2)nc2cc(C(N)=O)cnc21 [Compound C, N-[6-carbamoyl-3-[(E)-4-[5-carbamoyl-2-[(2-ethyl-5-methyl-pyrazole-3-carbonyl)amino]-7-methyl-benzimidazol-1-yl]but-2-enyl]imidazo[4,5-b]pyridin-2-yl]-2-methyl-thiazole-5-carboxamide Hydrochloride] | > 500 nM | 1 to 500 nM | 1 to 500 nM | 1 to 500 nM | > 500 nM | 1 to 500 nM |  |
| CCn1nc(C)cc1C(=O)Nc1nc2cc(C(N)=O)cnc2n1C/C=C/Cn1c(NC(=O)c2cc(C)nn2CC)nc2cc(C(N)=O)cc(OCCCN(C)C)c21 [Compound P, 3-[(E)-4-[5-carbamoyl-7-[3-(dimethylamino)propoxy]-2-[(2-ethyl-5-methyl-pyrazole-3-carbonyl)amino]benzimidazol-1-yl]but-2-enyl]-2-[(2-ethyl-5-methyl-pyrazole-3-carbonyl)amino]imidazo[4,5-b]pyridine-6-carboxamide] | 1 to 500 nM | 1 to 500 nM | 1 to 500 nM | 1 to 500 nM | 1 to 500 nM | 1 to 500 nM |  |
| CCn1nc(C)cc1C(=O)Nc1nc2cc(C(N)=O)sc2n1C/C=C/CNC(=O)OC(C)(C)C [Compound H, tert-butyl N-[(E)-4-[5-carbamoyl-2-[(2-ethyl-5-methyl-pyrazole-3-carbonyl)amino]thieno[2,3-d]imidazol-3-yl]but-2-enyl]carbamate] | > 500 nM | > 500 nM | > 500 nM | > 500 nM | > 500 nM | > 500 nM |  |
| CCn1nc(C)cc1C(=O)Nc1nc2cc(C(N)=O)cnc2n1C/C=C/Cn1c(NC(=O)c2cc(C)nn2CC)nc2cc(C(N)=O)cc(OCCCO)c21 [Compound R] | 1 to 500 nM | 1 to 500 nM | 1 to 500 nM | 1 to 500 nM |  | 1 to 500 nM | 1 to 500 nM |
| CCn1nc(C)cc1C(=O)Nc1nc2cc(C(N)=O)cnc2n1CCCCNC(=O)OCc1ccccc1 [Compound G, benzyl N-[4-[6-carbamoyl-2-[(2-ethyl-5-methyl-pyrazole-3-carbonyl)amino]imidazo[4,5-b]pyridin-3-yl]butyl]carbamate] | > 500 nM | > 500 nM | > 500 nM | > 500 nM | > 500 nM | > 500 nM |  |
| CCn1nc(C)cc1C(=O)Nc1nc2cc(C(N)=O)sc2n1C/C=C/Cn1c(NC(=O)c2cc(C)nn2CC)nc2cc(C(N)=O)cc(OCCOC(F)F)c21 [Compound N, 3-[(E)-4-[5-carbamoyl-7-[2-(difluoromethoxy)ethoxy]-2-[(2-ethyl-5-methyl-pyrazole-3-carbonyl)amino]benzimidazol-1-yl]but-2-enyl]-2-[(2-ethyl-5-methyl-pyrazole-3-carbonyl)amino]thieno[2,3-d]imidazole-5-carboxamide Tetrahydrochloride] | > 500 nM | < 1 nM | 1 to 500 nM | < 1 nM | 1 to 500 nM | > 500 nM |  |
| CCn1nc(C)cc1C(=O)Nc1nc2cc(C(N)=O)cnc2n1C/C=C/Cn1c(NC(=O)c2cc(C)nn2CC)nc2cc(C(N)=O)cnc21 [Compound L, 3-[(E)-4-[6-carbamoyl-2-[(2-ethyl-5-methyl-pyrazole-3-carbonyl)amino]imidazo[4,5-b]pyridin-3-yl]but-2-enyl]-2-[(2-ethyl-5-methyl-pyrazole-3-carbonyl)amino]imidazo[4,5-b]pyridine-6-carboxamide] | > 500 nM | 1 to 500 nM | 1 to 500 nM | 1 to 500 nM | 1 to 500 nM | > 500 nM |  |
| CCn1nc(C)cc1C(=O)Nc1nc2cc(C(N)=O)cnc2n1C/C=C/CNC(=O)OCc1ccccc1 [Compound F, benzyl N-[(E)-4-[6-carbamoyl-2-[(2-ethyl-5-methyl-pyrazole-3-carbonyl)amino]imidazo[4,5-b]pyridin-3-yl]but-2-enyl]carbamate] | > 500 nM | > 500 nM | > 500 nM | > 500 nM | > 500 nM | > 500 nM |  |
| CCn1nc(C)cc1C(=O)Nc1nc2cc(C(N)=O)cnc2n1C/C=C/Cn1c(NC(=O)c2cc(C)nn2CC)nc2cc(C(N)=O)cc(OCCCN(C)CCOC)c21 [Compound V, 3-[(E)-4-[5-carbamoyl-2-[(2-ethyl-5-methyl-pyrazole-3-carbonyl)amino]-7-[3-[2-methoxyethyl(methyl)amino]propoxy]benzimidazol-1-yl]but-2-enyl]-2-[(2-ethyl-5-methyl-pyrazole-3-carbonyl)amino]imidazo[4,5-b]pyridine-6-carboxamide] | 1 to 500 nM | 1 to 500 nM | 1 to 500 nM | 1 to 500 nM | 1 to 500 nM | 1 to 500 nM |  |
